pIC50: −log10 of the molar value.
How the values were obtained:
human CRTH2 [1] = target: T1, human CRTH2 (Homo sapiens, UniProt Q9Y5Y4, V204A); assay: Receptor binding assay: [3H]PGD2 competition binding on whole COS-7 cells transiently transfected with CRTH2 (also stable HEK293 cells); design: expressed in transfected cells; host or cells: COS-7 (transient, calcium phosphate)
T1 sequence (Q9Y5Y4 1-395 V204A): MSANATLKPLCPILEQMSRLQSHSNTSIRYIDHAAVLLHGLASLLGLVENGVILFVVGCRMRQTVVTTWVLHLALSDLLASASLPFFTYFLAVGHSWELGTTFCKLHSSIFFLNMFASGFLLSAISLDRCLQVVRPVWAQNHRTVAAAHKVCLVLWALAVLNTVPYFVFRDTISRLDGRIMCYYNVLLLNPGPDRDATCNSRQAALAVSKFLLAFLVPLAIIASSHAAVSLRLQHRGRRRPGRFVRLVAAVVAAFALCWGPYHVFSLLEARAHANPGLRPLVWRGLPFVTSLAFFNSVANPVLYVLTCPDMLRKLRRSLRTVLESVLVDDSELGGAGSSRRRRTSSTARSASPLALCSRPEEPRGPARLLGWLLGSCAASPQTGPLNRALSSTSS
Description: (§1) Generation/origin of the cDNA Constructs. The coding sequence of the human CRTH2 receptor (genbank accession no NM_004778) was amplified by PCR from a human hippocampus cDNA library and inserted into the pcDNA3.1(+) expression vector (invitrogen) via 5′ HindIII and 3′ EcoRI. To generate a CRTH2-Renilla luciferase (CRTH2-Rluc) fusion protein, the CRTH2 coding sequence without a STOP codon and Rluc were amplified, fused in frame by PCR and subcloned into the pcDNA3.1(+)Zeo expression vector (invitrogen). Human β-arrestin2 (β-arr2) N-terminally tagged with GFP^2 (βarr2-GFP^2) and Renilla luciferase were purchased from BioSignal Packard Inc, (Montreal, Canada). The sequence identity of the construct was verified by restriction endonuclease digests and sequencing in both directions on an ABI Prism (Applied Biosystems, Foster City, Calif.).
(§2) Cell Culture and Transfection. COS-7 cells were grown in Dulbecco's modified Eagle's medium (DMEM) 1885 supplemented with 10% fetal bovine serum, 100 units/ml penicillin, […] streptomycin, and kept at 37° C. in a 10% CO2 atmosphere. HEK293 cells were maintained in Minimum Essential medium (MEM) supplemented with 10% (v/v) heat inactivated fetal calf serum (HIFCS), 2 mM Glutamax™-I, 1% non essential amino acids (NEAA), 1% sodium pyruvate and 10 μg/ml gentamicin. For binding experiments, COS7 cells were transiently transfected with the CRTH2 receptor using a calcium phosphate-DNA coprecipitation method with the addition of chloroquine (as described by Holst et al., 2001↓). To perform the functional Bioluminescence Resonance Energy Transfer (BRET) assays, a HEK293 cell clone stably expressing βarr2-GFP^2 and CRTH2-Rluc was generated (CRTH2-HEK293 cells).
Binding assay. 24 h after transfection COS-7 cells were seeded into 96 well plates at a density of 30.000 cells/well. Competition binding experiments on whole cells were then performed about 18-24 h later using 0.1 nM [^3H]PGD2 (NEN, 172 Ci/mmol) in a binding buffer consisting of HBSS (GIBCO) and 10 mM HEPES. Competing ligands were diluted in DMSO which was kept constant at 1% (v/v) of the final incubation volume. Total and nonspecific binding were determined in the absence and presence of 10 μM PGD2. Binding reactions were routinely conducted for 3 h at 4° C. and terminated by 2 washes (100 μl each) with ice cold binding buffer. Radioactivity was determined by liquid scintillation counting in a TOPCOUNTER (Packard) following over night incubation in Microscint 20. Stable HEK293 cells were seeded at a density of 30.000 cells/well 18-24 h prior to the binding assay which was performed essentially as described for COS7 cells above. Determinations were made in duplicates.
(§3) Curve analysis was performed with the GraphPadPrism software 3.0 (Graphpad Prism Inc., San Diego, USA) and IC50 values were calculated as a measure of the antagonistic potencies.

human CRTH2 [2] = target: T1, human CRTH2; assay: Functional antagonist BRET assay on HEK293 cells stably expressing human CRTH2-Rluc and GFP2-β-arr2; assay type: cell-based; design: expressed in transfected cells; conditions: read-out: Antag. IC50
Description: as §1, §2
BRET assay. Functional BRET assays were performed on HEK293 cells stably expressing human CRTH2-Rluc and GFP^2-β-arr2. Prior to their use in the BRET assay cells were detached and re-suspended in D-PBS with 1000 mg/L L-Glucose at a density of 2×10^6 cells/mL. DeepBlueC™ was diluted to 50 μM in D-PBS with 1000 mg/L L-Glucose (light sensitive). 100 μL of cell suspension was transferred to wells in a 96-well microplate (white OptiPlate) and placed in the Mithras LB 940 instrument (BERTHOLD TECHNOLOGIES, Bad Wildbad, Germany). 12 μL/well agonist was then injected by injector 1 and 10 μL/well DeepBlueC™ was injected simultaneously by injector 2. Five seconds after the injections the light output from the well was measured sequentially at 400 nm and 515 nm, and the BRET signal (mBRET ratio) was calculated by the ratio of the fluorescence emitted by GFP^2-β-arr2 (515 nm) over the light emitted by the receptor-Rluc (400 nm). Antagonists were added before placing the microplates into the Mithras LB 940 and allowed to incubate for 15 minutes prior to the addition of agonist and DeepBlueC™. Compounds were dissolved in DMSO and the final DMSO concentration was kept constant at 1% in the assay.
as §3

[3] = receptor binding assay, Table 3
[4] = functional antagonist assay, Table 3
[5] = competition with 0.1 nM [3H]PGD2, whole cells, 3 h at 4° C.
[6] = BRET, antagonist incubated 15 minutes prior to agonist

Structure (SMILES) | pIC50 (human CRTH2 [1]; [3]) | pIC50 (human CRTH2 [2]; [4]) | pIC50 (human CRTH2 [1]; [5]) | pIC50 (human CRTH2 [2]; [6])
O=C(O)COc1ccc(Br)cc1-c1nc(Cc2ccc(F)cc2)no1 [D116, {4-Bromo-2-[3-(4-fluoro-benzyl)-[1,2,4]oxadiazol-5-yl]-phenoxy}-acetic acid] | > 6.30 | > 6.30 |  | 
O=C(O)COc1ccc(Br)cc1-c1nc(Cc2c(Cl)cccc2Cl)no1 [D121, {4-Bromo-2-[3-(2,6-dichloro-benzyl)-[1,2,4]oxadiazol-5-yl]-phenoxy}-acetic acid] | > 6.30 | > 6.30 |  | 
CCc1cc(Br)ccc1-n1cc(C(=O)c2cc(Br)ccc2OCC(=O)O)cn1 [D42, {4-Bromo-2-[1-(4-bromo-2-ethylphenyl)-1H-pyrazole-4-carbonyl]phenoxy}acetic acid] |  |  | > 6.30 | > 6.30
CCc1cccc(C)c1-n1cc(C(=O)c2cc(Br)ccc2OCC(=O)O)cn1 [D72, {4-Bromo-2-[1-(2-ethyl-6-methylphenyl)-1H-pyrazole-4-carbonyl]phenoxy}acetic acid] |  |  | > 6.30 | > 6.30
O=C(O)COc1ccc(Br)cc1C(=O)c1cnn(-c2ccc(Cl)cc2)c1 [D17, 4-Bromo-2-[1-(4-chlorophenyl)-1H-pyrazole-4-carbonyl]phenoxyacetic acid] |  |  | > 6.30 | > 6.30
CCc1ccc(OCC(=O)O)c(C(=O)c2cnn(-c3ccccc3Br)c2)c1 [D30, 4-Ethyl-2-[1-(2-bromophenyl)-1H-pyrazole-4-carbonyl]phenoxyacetic acid] |  |  | > 6.30 | > 6.30
CC(Oc1ccc(Br)cc1C(=O)c1cnn(-c2c(Cl)cc(Cl)cc2Cl)c1)C(=O)O (stereo not shown) [D68, 2-{4-Bromo-2-[1-(2,4,6-trichlorophenyl)-1H-pyrazole-4-carbonyl]phenoxy}propionic acid] |  |  | > 6.30 | > 6.30
O=C(O)COc1ccc(Br)cc1-c1csc(Cc2ccc(Cl)cc2)n1 [D94, {4-Bromo-2-[2-(4-chlorobenzyl)thiazol-4-yl]phenoxy}acetic acid] |  |  | > 6.30 | > 6.30
O=C(O)COc1ccc(Br)cc1C(=O)c1cnn(-c2cccc(Cl)c2)c1 [D15, 4-Bromo-2-[1-(3-chloro-phenyl)-1H-pyrazole-4-carbonyl]phenoxyacetic acid] |  |  | > 6.30 | > 6.30
O=C(O)COc1ccc(Br)cc1-c1nc(-c2ccc(Cl)cc2)no1 [D102, {4-Bromo-2-[3-(4-chlorophenyl)-[1,2,4]oxadiazol-5-yl]phenoxy}acetic acid] | > 6.30 | > 6.30 |  | 
O=C(O)COc1ccc(Br)cc1-c1coc(Cc2ccc(F)cc2Cl)n1 [D90, {4-Bromo-2-[2-(2-chloro-4-fluorobenzyl)oxazol-4-yl]phenoxy}acetic acid] |  |  | > 6.30 | > 6.30
Cc1ccc(-n2cc(C(=O)c3cc(Br)ccc3OC(C)C(=O)O)cn2)c(Br)c1 (stereo not shown) [D50, 2-{4-Bromo-2-[1-(2-bromo-4-methylphenyl)-1H-pyrazole-4-carbonyl]phenoxy}propionic acid] |  |  | > 6.30 | > 6.30
O=C(O)COc1ccc(Br)cc1CN1CC(=O)N(Cc2ccc(Cl)cc2)C1=O [D139, 4-Bromo-2-[3-(4-chlorobenzyl)-2,4-dioxoimidazolidin-1-ylmethyl]phenoxyacetic acid] |  |  | > 6.30 | > 6.30
CCc1ccccc1-n1cc(C(=O)c2cc(Br)ccc2OCC(=O)O)cn1 [D18, 4-Bromo-2-[1-(2-ethylphenyl)-1H-pyrazole-4-carbonyl]phenoxyacetic acid] |  |  | > 6.30 | > 6.30
O=C(O)COc1ccc(Br)cc1C(=O)c1cnn(-c2c(Cl)cncc2Cl)c1 [D80, {4-Bromo-2-[1-(3,5-dichloropyridin-4-yl)-1H-pyrazole-4-carbonyl]phenoxy}acetic acid] |  |  | > 6.30 | > 6.30
O=C(O)COc1ccc(Br)cc1CC1SC(=O)N(Cc2ccncc2)C1=O (stereo not shown) [D145, 4-Bromo-2-(2,4-dioxo-3-pyridin-4-ylmethylthiazolidin-5-ylmethyl)phenoxyacetic acid] |  |  | > 6.30 | > 6.30
Cc1cccc(C)c1-n1cc(C(=O)c2cc(Br)ccc2OCC(=O)O)cn1 [D71, {4-Bromo-2-[1-(2,6-dimethylphenyl)-1H-pyrazole-4-carbonyl]phenoxy}acetic acid] |  |  | > 6.30 | > 6.30
O=C(O)COc1ccc(Br)cc1-c1nc(-c2cc(C(F)(F)F)cc(C(F)(F)F)c2)no1 [D109, {2-[3-(3,5-Bis-trifluoromethyl-phenyl)-[1,2,4]oxadiazol-5-yl]-4-bromo-phenoxy}-acetic acid] | > 6.30 | < 5.30 |  | 
O=C(O)COc1ccc(Br)cc1-c1nc(-c2ccccc2)co1 [D96, [4-Bromo-2-(4-phenyl-oxazol-2-yl)-phenoxy]acetic acid] |  |  | > 6.30 | 5.30 to 6.30
COc1ccc(Cc2nc(-c3cc(Br)ccc3OCC(=O)O)co2)cc1 [D92, {4-Bromo-2-[2-(4-methoxybenzyl)oxazol-4-yl]phenoxy}acetic acid] |  |  | > 6.30 | > 6.30
O=C(O)COc1ccc(Br)cc1C(=O)c1cnn(-c2ccccc2Cl)c1 [D14, 4-Bromo-2-[1-(2-chloro-phenyl)-1H-pyrazole-4-carbonyl]phenoxyacetic acid] |  |  | < 5.30 | > 6.30
O=C(O)COc1ccc(Br)cc1-c1csc(-c2ccccc2)n1 [D93, [4-Bromo-2-(2-phenylthiazol-4-yl)phenoxy]acetic acid] |  |  | > 6.30 | > 6.30
O=C(O)COc1ccc(Br)cc1-c1nc(Cc2ccc(Cl)c(Cl)c2)no1 [D123, {4-Bromo-2-[3-(3,4-dichlorobenzyl)-[1,2,4]oxadiazol-5-yl]-phenoxy}acetic acid] | > 6.30 | > 6.30 |  | 
CCc1cc(Br)ccc1-n1cc(C(=O)c2cc(Br)ccc2OC(C)C(=O)O)cn1 (stereo not shown) [D46, 2-{4-Bromo-2-[1-(4-bromo-2-ethylphenyl)-1H-pyrazole-4-carbonyl]phenoxy}propionic acid] |  |  | > 6.30 | > 6.30
Cc1ccc(Cc2noc(-c3cc(Br)ccc3OCC(=O)O)n2)cc1 [D126, {4-Bromo-2-[3-(4-methylbenzyl)-[1,2,4]oxadiazol-5-yl]phenoxy}acetic acid] | > 6.30 | > 6.30 |  | 
O=C(O)COc1ccc(Br)cc1C(=O)c1cnn(-c2ccc(Br)cc2)c1 [D16, 4-Bromo-2-[1-(4-bromophenyl)-1H-pyrazole-4-carbonyl]phenoxyacetic acid] |  |  | > 6.30 | > 6.30

Reference: US20110269763A1, “CRTH2 receptor ligands for medicinal uses” (7TM Pharma A/S, priority 2004, published 2011)
